Results reported in EP2848693A1, “Concatenation of halogenated alkenyl diphosphate derivatives” (LANXESS Deutschland GmbH, priority 2013, dated 2015).

Columns and labels:
Format in all cases: biochemical
EcUPPS = molecular target: T1, EcUPPS (Escherichia coli, UniProt P60472); assay: Product chain length by HPLC with fluorescent starter substrate 110; details: 10 µM EcUPPS, 110 as starter substrate, HPLC of hydrolysed products
T1 construct: made in house; host or cells: E. coli
Experimental: Zur Bestimmung der Produktkettenlängen wurden 500 µL Enzymassays in MS-Gläschen durchgeführt. […] Die Extraktion der Polyprenyldiphosphate erfolgte mit 500 µL 1-Butanol. Die Butanolphase wurde in ein neues Glas überführt und unter Stickstoffstrom von dem Lösungsmittel befreit. Die Hydrolyse der Diphosphate zum Polyprenol erfolgte durch Zugabe von 200 µL Hydrolysepuffer (20% Isopropanol, 4,4 Units/mL saure Phophatase aus Kartoffeln, 0,1 % Triton X-100, 50 mM Natriumacetat (pH 4,7)) und wurde über Nacht bei 37 °C inkubiert. Die Polyprenole wurden mit 500 µL nHexan extrahiert und zur weiteren DC- oder HPLC-Analyse vorbereitet. Für DC-Experimente und LC/ESI-MS-Analysen wurde die nHexan-Phase in ein neues Glas überführt, das Lösungsmittel abgedampft und die Produkte erneut in 100 µL nHexan resuspendiert um eine Aufkonzentrierung zu erreichen. Für HPLC-Analysen mit 110 ((2E,6E)-8-O-(N-methyl-2-aminobenzoyl)-3,7-dimethyl-2,6-octandien-1-diphosphat) als Startersubstrat wurde die nHexan-Phase 1:3 verdünnt in das HPLC-System mittels Autosampler injiziert.
Die HPLC-Analyse der Polyprenole erfolgte an einer Anlage von Merck HITACHI D-7000, wobei als stationäre Phase eine YMC-ODS AQ (150 x 4 mm, 5 µm; YMC Europe GmbH, Dinslaken) Säule verwendet wurde. Die Elution erfolgte mit 1 mL·min^-1 und die Detektion bei 210 nm mit einem UV-VIS Detektor: Merck HITACHI L-7420. […]

[1] = molecular target: T2, E. coli Undecaprenyldiphosphatsynthase (EcUPPS) (Escherichia coli, UniProt P60472); assay: MTP phosphate detection assay (diphosphate release, BIOMOL Green), substrate kinetics; details: elongation substrate varied, starter FPP 10 µM
T2 construct: made in house; host or cells: E. coli
T2 sequence (P60472 1-253): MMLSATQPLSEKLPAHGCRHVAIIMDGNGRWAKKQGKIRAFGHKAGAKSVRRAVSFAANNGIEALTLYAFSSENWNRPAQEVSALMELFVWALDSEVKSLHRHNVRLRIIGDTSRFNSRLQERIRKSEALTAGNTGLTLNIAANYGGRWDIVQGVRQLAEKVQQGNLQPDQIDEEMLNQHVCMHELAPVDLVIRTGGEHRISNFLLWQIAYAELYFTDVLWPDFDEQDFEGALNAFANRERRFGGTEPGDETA
Experimental: (§1) Cis-Prenyltransferasen entlassen während der Reaktion Diphosphat nach jedem Kondensationsschritt. Dies ist der Ansatzpunkt, der gewählt wurde, um unabhängig von der Art des Produktes den Grundumsatz zu detektieren. […] Die Dreifachbestimmungen der Enzymreaktionen wurden mit 100 µL BIOMOL Green™ Detektionsreagenz gestoppt und nach weiteren 20 min in einem Mikrotiterplattenspektrophotometer bei 620 nm gemessen. Zur Kontrolle erfolgte für jede Substratkonzentration eine Messung mit denaturiertem Enzym zu den unterschiedlichen Zeitpunkten um Selbsthydrolyse der Substrate zu berücksichtigen. Zur Quantifizierung wurde eine Pi-Standardkurve in Doppelbestimmung mitgeführt. Die Verdünnung des KPi-Standards erfolgte in Assaypuffer, wurde mit 100 µL BIOMOL Green™ Detektionsreagenz nach Ablauf der Enzymreaktion in den Test-Wells detektiert und zeitgleich nach weiteren 20 min bei 620 nm gemessen. Eine lineare Beziehung zwischen A620 nm und Pi-Konzentration ermöglichte eine Quantifizierung zwischen 80 µM-0 µM Pi.
(§2) Die Bestimmung der FPP-Kinetiken der EcUPPS sowie der ThkCPT erfolgte unter analogen Bedingungen der Bestimmung von IPP. […] Die Enzymreaktion wurde nach 60 s, 120 s, 180 s, 300 s, 600 s, 900 s oder 1200 s durch Zugabe von 100 µL BIOMOL Green™ Detektionsreagenz gestoppt und wie oben beschrieben gemessen.
(§3) Die Assaybedingungen wurden wie in Beispiel 3 beschriebenen gewählt. […] Variation von 500 - 0 µM im Fall der Elongationssubstrate erfolgte konstant mit 10 µM FPP (jedes Homoallyldiphosphat möglich).
(§4) Zur Berechnung der Umsatzraten in nkat·mg^-1 wurde verwendet: ν0 = ((A620-ABlank)⋅1000)/(2⋅m⋅t⋅[E]) [formula] v0 Anfangsgeschwindigkeit der Diphosphathydrolyse (nkat·mg^-1) A620 Absorption bei 620 nm ABlank Absorption der Kontrolle bei 620 nm m Anstieg der Phosphatstandardkurve (µM^-1) t Dauer der Enzymreaktion (s) [E] Enzymkonzentration (mg·L^-1)
(§5) Die Auswertung erfolgte durch nicht-lineare Regression nach der Hill-Gleichung mit Sigma-Plot 11. […] Substratkonzentration (µM) h Hill-Koeffizient

[2] = molecular target: T3, Thermococcus kodakaraensis cis-Prenyltransferase (ThkCPT) (Thermococcus kodakarensis, UniProt Q5JGE1); assay: as above; details: elongation substrate varied, starter FPP 10 µM, room temperature
T3 construct: made in house; host or cells: E. coli
T3 sequence (Q5JGE1 1-264): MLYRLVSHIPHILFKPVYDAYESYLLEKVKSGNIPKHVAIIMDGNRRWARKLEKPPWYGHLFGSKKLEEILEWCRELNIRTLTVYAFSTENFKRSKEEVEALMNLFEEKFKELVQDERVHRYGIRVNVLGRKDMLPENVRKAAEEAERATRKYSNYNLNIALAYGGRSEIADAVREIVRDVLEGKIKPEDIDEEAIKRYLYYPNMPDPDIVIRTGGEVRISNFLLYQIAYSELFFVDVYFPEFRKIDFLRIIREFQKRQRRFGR
Experimental: as §1, §2, §3, §4, §5

SMILES: C=C(Cl)CCOP(=O)(O)OP(=O)(O)O [Cl-BPP, 3-Chlor-3-Butenyldiphosphat]
- Kondensationsschritte / Elongationseinheiten (EcUPPS): 2
- kcat [1]: 0,0009 s^-1
- kcat [2]: 0,0005 s^-1
